Molecules are shown by their SMILES. *1 amine or outer side, *2 acyl side, *3 side chain or, on linkers, in order; H or OH if unused. Where a SMILES comes first, the peptide text is derived from it. Bridges are numbered along the chain shown (N, C = ends). [ ]: non-standard residue; d: D form. hPhe(3-Cl-4-CF3) = N[C@@H](CCc1ccc(C(F)(F)F)c(Cl)c1)C(=O)O; NPrPhe(4-CF3) = CCCN[C@@H](Cc1ccc(C(F)(F)F)cc1)C(=O)O; NEtAsp = CCN([C@@H](CC(=O)[*:3])C(=O)[*:2])[*:1]; X8 = CCCN([C@@H](COCCC(C)C)C(=O)[*:2])[*:1]; NMeGly(cPent) = CN[C@H](C(=O)O)C1CCCC1; NMeD = CN[C@@H](CC(=O)O)C(=O)O; NMeL = CN[C@@H](CC(C)C)C(=O)O; NMeA = CN[C@@H](C)C(=O)O; Ac5c = NC1(C(=O)O)CCCC1; Aze = O=C(O)[C@@H]1CCN1; Ac4c = NC1(C(=O)O)CCC1; Sar = CNCC(=O)O

The target of test [1] is GDP-bound NRAS wild-type protein (Homo sapiens, UniProt P01111). Briefly: Binding to NRAS by surface plasmon resonance (SPR), KD and KD ratio to KRAS. The method in brief: (§1)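 GDP-bound biotin-Avi RAS captured at ~100–300 RU, 30°C, pH 7.4 HBS containing 10 µM GDP, 10 mM MgCl2, 1 mM DTT, 0.01% Tween 20 and 4% DMSO. KD by 1:1 fitting.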
In general terms: In SPR one partner is held on a chip, and binding of the other changes the refractive index at the surface.

Test [2] deals with HRAS wild-type protein (Homo sapiens, UniProt P01112). The test is described as follows: Binding to HRAS by surface plasmon resonance (SPR), KD and KD ratio to KRAS. The method in brief:
as §1

Test [3] relates to human lung cancer strain NCI-H441. The class given is cell-based. The procedure, abridged:
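Readout: […] after the ATP-based reagent. Compound: serial dilutions in dimethyl sulfoxide.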

The mark [4] stands for this setting: ratio of the KD value with respect to GDP-bound NRAS wild-type protein to the KD value with respect to KRAS.
[5] abbreviates: ratio of the KD value with respect to HRAS wild-type protein to the KD value with respect to KRAS.
Setting [6] is: ratio of KD for GDP-bound NRAS wild-type protein to KD for KRAS.
The mark [7] stands for this setting: ratio of KD for HRAS wild-type protein to KD for KRAS.
Setting [8] is: ratio of KD value for GDP-bound NRAS wild-type protein to KD value for KRAS (SPR).
[9] abbreviates: ratio of KD value for HRAS wild-type protein to KD value for KRAS (SPR).

GDP-bound NRAS wild-type protein, sequence (P01111 whole entry): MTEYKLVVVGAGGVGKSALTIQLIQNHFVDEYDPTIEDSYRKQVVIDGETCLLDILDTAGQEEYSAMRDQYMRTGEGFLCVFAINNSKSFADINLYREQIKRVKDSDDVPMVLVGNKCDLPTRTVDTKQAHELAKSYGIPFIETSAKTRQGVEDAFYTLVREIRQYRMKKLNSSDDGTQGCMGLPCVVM
HRAS wild-type protein, sequence (P01112 whole entry): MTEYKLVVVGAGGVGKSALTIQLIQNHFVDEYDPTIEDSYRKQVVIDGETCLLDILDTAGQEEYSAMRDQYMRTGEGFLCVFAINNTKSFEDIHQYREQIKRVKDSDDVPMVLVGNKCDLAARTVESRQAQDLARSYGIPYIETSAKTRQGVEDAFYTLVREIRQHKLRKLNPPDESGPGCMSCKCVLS

As a reminder, the IC50 is the concentration needed to halve the response being measured. Higher therefore signals weaker potency in that assay. On to `CCCN1C(=O)CN(C)C(=O)CNC(=O)[C@H]([C@@H](C)CC)NC(=O)[C@H](CC(C)C)N(C)C(=O)C[C@@H](C(=O)N(C)C)N(C)C(=O)[C@H](C2CCCC2)N(C)C(=O)C2(CCCC2)NC(=O)[C@@H]2CCCN2C(=O)[C@H](CCc2ccc(C(F)(F)F)c(Cl)c2)NC(=O)CN(C)C(=O)[C@@H]1Cc1ccc(C(F)(F)F)cc1` [PP0417] ([NMeL]IG[Sar][NPrPhe(4-CF3)][Sar][hPhe(3-Cl-4-CF3)]P[Ac5c][NMeGly(cPent)][NMeD]-NMe2; lactam N-11), for which the “NRAS /KRAS” value in test [1] (setting [4]) was “B (a compound having 3 or more and less than 10 is denoted as B)”. Further, in test [2] (setting [5]), the “HRAS /KRAS” value is “C (A compound having a KD ratio of 0.1 or more and less than 3 is denoted as C)”. This compound came in with an IC50 in test [3] of 0.0039 µM.

For `CCO[C@@H]1C[C@H]2C(=O)NC3(CC(C)(C)C3)C(=O)N(C)[C@@H](C3CCCC3)C(=O)N(C)[C@H](C(=O)N(C)C)CC(=O)N(C)[C@@H](CC(F)(F)F)C(=O)N[C@@H]([C@@H](C)CC)C(=O)N(C)CC(=O)N(C)[C@H]3C/C=C\CCN(C3=O)[C@@H](Cc3ccc(C(F)(F)F)cc3)C(=O)N(C)CC(=O)N[C@@H](CCc3ccc(Cl)c(Cl)c3)C(=O)N2C1` [PP2832], the “NRAS /KRAS” value in test [1] (setting [6]) is “A (a compound having 10 or more and less than 20 is denoted as A)”. For the same compound, the “HRAS /KRAS” value in test [2] (setting [7]) is “A (a compound having 10 or more and less than 20 is denoted as A)”. In test [3], this compound yielded an IC50 of 0.0048 µM.

For the compound `CCO[C@@H]1C[C@H]2C(=O)NC3(CC(C)(C)C3)C(=O)N(C)[C@@H](C(CC)CC)C(=O)N(C)[C@H](C(=O)N(C)C)CC(=O)N(C)[C@@H](CC3CCC3)C(=O)N[C@@H]([C@@H](C)CC)C(=O)N(C)CC(=O)N(C)[C@H]3C/C=C\CCN(C3=O)[C@@H](Cc3ccc(C)cc3)C(=O)N(C)CC(=O)N[C@@H](CCc3cc(F)c(C(F)(F)F)c(F)c3)C(=O)N2C1` [PP2151], the “NRAS /KRAS” value in test [1] (setting [4]) was “A (a compound having 10 or more and less than 20 is denoted as A)”. Also, the “HRAS /KRAS” value in test [2] (setting [5]) was “A (a compound having 10 or more and less than 20 is denoted as A)”. Further, it took 0.0233 µM to reach half-maximal inhibition in test [3] (IC50).

With `CCCC[C@H]1C(=O)N[C@@H]([C@@H](C)CC)C(=O)N(C)CC(=O)N(C)[C@H]2C/C=C\CCN(C2=O)[C@@H](Cc2ccc(C(F)(F)F)cc2)C(=O)N(C)CC(=O)N[C@@H](CCc2cc(F)c(C(F)(F)F)c(F)c2)C(=O)N2C[C@H](OCC)C[C@H]2C(=O)NC2(CC(C)(C)C2)C(=O)N(C)[C@@H](C2CCCC2)C(=O)N(C)[C@H](C(=O)N(C)CC)CC(=O)N1C` [PP2806], the “NRAS /KRAS” value in test [1] (setting [6]) is “A (a compound having 10 or more and less than 20 is denoted as A)”. For the same compound, the “HRAS /KRAS” value in test [2] (setting [7]) was “A (a compound having 10 or more and less than 20 is denoted as A)”. In test [3], the IC50 stood at 0.0113 µM.

As for `CCC[C@H]1C(=O)N[C@@H]([C@@H](C)CC)C(=O)N(C2CC2)CC(=O)N(C)[C@H]2C/C=C\CCN(C2=O)[C@@H](Cc2ccc(C)cc2)C(=O)N(C)CC(=O)N[C@@H](CCc2ccc(C(F)(F)F)c(OC)c2)C(=O)N2C[C@H](OCC)C[C@H]2C(=O)N(C)C2(CCC2)C(=O)N(C)[C@@H](C2CCCC2)C(=O)N(C)[C@H](C(=O)N(C)C)CC(=O)N1C` [PP2328], the “NRAS /KRAS” value in test [1] (setting [4]) is “A (a compound having 10 or more and less than 20 is denoted as A)”. In addition, in test [2] (setting [5]), the “HRAS /KRAS” value was “A (a compound having 10 or more and less than 20 is denoted as A)”. In test [3], this compound came in with an IC50 of 0.0022 µM.

Take `CCCN1C(=O)[C@@H]2CCN2C(=O)[C@H](C)N(C)C(=O)[C@H]([C@@H](C)CC)NC(=O)[C@H](CC(C)C)N(C)C(=O)C[C@@H](C(=O)N(C)C)N(CC)C(=O)[C@H](C2CCCC2)N(C)C(=O)C2(CCC2)NC(=O)[C@@H]2CCCN2C(=O)[C@H](CCc2ccc(C(F)(F)F)c(Cl)c2)NC(=O)CN(C)C(=O)[C@@H]1Cc1ccc(C(F)(F)F)cc1` [PP1957] ([NMeL]I[NMeA][Aze][NPrPhe(4-CF3)][Sar][hPhe(3-Cl-4-CF3)]P[Ac4c][NMeGly(cPent)][NEtAsp]-NMe2; lactam N-11): the “NRAS /KRAS” value in test [1] (setting [4]) is “C (A compound having a KD ratio of 0.1 or more and less than 3 is denoted as C)”. Moreover, the “HRAS /KRAS” value in test [2] (setting [5]) is “B (a compound having 3 or more and less than 10 is denoted as B)”. In addition, the IC50 in test [3] is 0.0086 µM.

Turning to `CCO[C@@H]1C[C@H]2C(=O)NC3(CCC3)C(=O)N(C)[C@@H](C3CCCC3)C(=O)N(C)[C@H](C(=O)N3CCOCC3)CC(=O)N(C)[C@@H](CC(F)F)C(=O)N[C@@H]([C@@H](C)CC)C(=O)N(C)CC(=O)N(C)[C@H]3CCCCCN(C3=O)[C@@H](Cc3ccc(C(F)(F)F)cc3)C(=O)N(C)CC(=O)N[C@@H](CCc3cc(F)c(C(F)(F)F)c(F)c3)C(=O)N2C1` [PP0854], the “NRAS /KRAS” value in test [1] (setting [6]) was “B (a compound having 3 or more and less than 10 is denoted as B)”. Also, the “HRAS /KRAS” value in test [2] (setting [7]) was “B (a compound having 3 or more and less than 10 is denoted as B)”. This compound also had an IC50 in test [3] of 0.0217 µM.

`CCCOC[C@H]1C(=O)N[C@@H]([C@@H](C)CC)C(=O)N(C)CC(=O)N(C)[C@H]2C/C=C\CCN(C2=O)[C@@H](Cc2ccc(C(F)(F)F)cc2)C(=O)N(C)CC(=O)N[C@@H](CCc2cc(F)c(C(F)(F)F)c(F)c2)C(=O)N2C[C@@H](C)C[C@H]2C(=O)NC2(CC(C)(C)C2)C(=O)N(C)[C@@H](C2CCCC2)C(=O)N(C)[C@H](C(=O)N(C)CC)CC(=O)N1C` [PP2043]: the “NRAS /KRAS” value in test [1] (setting [4]) is “A (a compound having 10 or more and less than 20 is denoted as A)”. Also, the “HRAS /KRAS” value in test [2] (setting [5]) is “A (a compound having 10 or more and less than 20 is denoted as A)”. The compound further displayed an IC50 in test [3] of 0.028 µM.

Regarding `CCO[C@@H]1C[C@H]2C(=O)NC3(CC(C)(C)C3)C(=O)N(C)[C@@H](C3CCCC3)C(=O)N(C)[C@H](C(=O)N(C)CC)CC(=O)N(C)[C@@H](COC)C(=O)N[C@@H]([C@@H](C)CC)C(=O)N(C)CC(=O)N(C)[C@H]3C/C=C\CCN(C3=O)[C@@H](Cc3ccc(C(F)(F)F)cc3)C(=O)N(C)CC(=O)N[C@@H](CCc3cc(F)c(C(F)(F)F)c(F)c3)C(=O)N2C1` [PP1671], in test [1] (setting [8]), the “NRAS /KRAS” value is “A (a compound having 10 or more and less than 20 is denoted as A)”. The “HRAS /KRAS” value in test [2] (setting [9]) was “A (a compound having 10 or more and less than 20 is denoted as A)”. In addition, in test [3], 0.003 µM corresponded to half-maximal inhibition (IC50).

Take `CC[C@H](C)[C@@H]1NC(=O)[C@@H]2CCC/C=C/c3ccc(cc3)C[C@@H](C(=O)N(C)CC(=O)N[C@@H](CCc3ccc(Cl)c(Cl)c3)C(=O)N3CCC[C@H]3C(=O)NC3(CC(C)(C)C3)C(=O)N(C)[C@@H](C3CCCC3)C(=O)N(C)[C@H](C(=O)N3CCCC3)CC(=O)N2C)N2CC/C=C\C[C@@H](C2=O)N(C)C(=O)CN(C)C1=O` [PP2602]: the “NRAS /KRAS” value in test [1] (setting [6]) was “A (a compound having 10 or more and less than 20 is denoted as A)”. In test [2] (setting [7]), the “HRAS /KRAS” value is “A (a compound having 10 or more and less than 20 is denoted as A)”. In addition, it took 0.0128 µM to reach half-maximal inhibition in test [3] (IC50).

For the compound `CCCN1C(=O)[C@@H]2CCN2C(=O)[C@H](C)N(C)C(=O)[C@H]([C@@H](C)CC)NC(=O)[C@H](CC(C)C)N(C)C(=O)C[C@@H](C(=O)N(C)C)N(C)C(=O)[C@H](C2CCCC2)N(C)C(=O)C2(CCC2)NC(=O)[C@@H]2CCCN2C(=O)[C@H](CCc2ccc(C(F)(F)F)c(Cl)c2)NC(=O)CN(C)C(=O)[C@@H]1COCCC(C)C` [PP1820] ([NMeL]I[NMeA][Aze][X8][Sar][hPhe(3-Cl-4-CF3)]P[Ac4c][NMeGly(cPent)][NMeD]-NMe2; lactam N-11), the “NRAS /KRAS” value in test [1] (setting [8]) is “C (A compound having a KD ratio of 0.1 or more and less than 3 is denoted as C)”. Further, in test [2] (setting [9]), the “HRAS /KRAS” value is “C (A compound having a KD ratio of 0.1 or more and less than 3 is denoted as C)”. For the same compound, in test [3], the IC50 was 0.0407 µM.

These data come from EP4603105A1, “PHARMACEUTICAL COMPOSITION CONTAINING CYCLIC COMPOUND HAVING SELECTIVE KRAS INHIBITORY EFFECT AGAINST HRAS AND NRAS” (CHUGAI SEIYAKU KABUSHIKI KAISHA, priority 2022, dated 2024).
